Results as given in patent publication US20080318931A1, “Treatment of Disorders and Diseases of the Colon” (priority 2004, published 2008).
Entries after “also recorded” stand apart in the source; their conditions may differ.

Key:
C-jun = C-jun expression in HT29 cells, western blot; assay type: cell-based, human; details: 10 and 20 μM, 24 hr
Description: (§1) The effect of paroxetine and sertraline on the expression of bcl-2 and C-jun was evaluated in human colon HT29 cell-line 24 hr after drug administration, using western blot analysis for C-jun and bcl-2 and specific antibodies.

Cyclooxygenase-2 (Cox-2) = assay: Cox-2 expression in ConA stimulated mouse splenocytes, Western blot; assay type: cell-based; details: 5 μM, normalized to actin
Description: Determination was performed using Western blot analysis and quantitative dencitometry of blot.
For each sample 2×10^7 cells were used. Cells were lysed, and equal amounts of protein was fractionated on polyacrylamide gel and then transferred to PVDF membrane. The amount of the protein was detected by immuno-blotting with […] anti-Cox-2 anti body (Murine anti COX2 Polyclonal Cat. 160126, Ann Arbor, Mich., USA. 2nd antibody conjugated to horseradish peroxidase was used and visualized with chemiluminescent Kit (Pierce, Rockford, Ill., USA) on film. Quantification of blot was performed using a densitometry apparatus (VersaDoc™ imaging system, BioRad, USA) and levels were normalized to actin.

[1] = system: ConA-induced mouse splenocytes; assay: Con-A-induced mouse splenocyte proliferation/viability, alamar blue; assay type: cell-based; details: for ConA (mitogen)-induced splenocyte proliferation: 2.5-10 μM, alamar blue; for cytotoxicity at 20 µM: Mus musculus, Splenocyte, read-out: inhibition of cell viability
Description: (§2) Mouse splenocytes were isolated from C57b1 healthy female mice. Cells (10,000/well) were tested under basal and ConA stimulation. Cells were treated with vehicle, dexamethasone or antidepressants (2.5-10 μM). Viability was assessed 48 hr later using alamar blue staining. (Reagents were manufactured by Wildflower, Santa Fe, N. Mex., USA.) Alamar blue assay was performed as in Nociari et al (1998).
(§3) Effect of paroxetine, (SSRI) and clomipramine (TCA) as compared to dexamethasone on Con-A-induced splenocyte proliferation (alamar blue method), and splenocyte-induced secretion of TH1 cytokines TNF-α, IL2 and INFγ, 1×10^6 cells/well, was measured 48 hours after exposure to drugs (2.5-10 μM).
In particular, mouse splenocytes were isolated from C57BL healthy female mice. Cells (10,000/well) were then exposed to Con-A (5 μM) and treated with either the vehicle, with dexamethasone or with a drug (2.5-10 μM).
Cell viability was assessed 48 hr later using Alamar blue staining. The results are presented in FIG. 4, where each point is the graph represents the mean of 4 determinations. […]. The IC50 determined for the antidepressant drugs was in the range of 2.5-5.5 μM.
Cells were treated with vehicle, or the antidepressants (2.5-20 μM). Viability was assessed 48 hours later using alamar blue staining. (Each point is the mean+/−SEM of 4 determinations).

[2] = system: Con-A activated splenocytes; details: 5 μM
Description: (§4) LPS (manufactured by Sigma St. Louis Mo., USA, cat no L2880) was administered at 100 μg/mouse×2, on day 7 and day 14).

[3] = system: Con-A activated splenocytes; assay: cells; details: Mus musculus, Splenocyte, read-out: inhibition of viability, splenocytes from naïve animals
Description: as §4

bcl-2 = bcl-2 expression in HT29 cells, western blot; assay type: cell-based, human; details: 10 and 20 μM, 24 hr
Description: as §1

[4] = system: Human Colon carcinoma (HT29) cell-line; assay: Viability of human colon carcinoma HT29 cells, alamar blue and neutral red; assay type: cell-based; details: for inhibition of cell viability: 10-30 μM, FIG. 14; for cell viability / responsiveness of HT29 cells: FIG. 13
Description: Human Colon carcinoma (HT29) cell-line (ATCC USA) was maintained in RPMI medium supplemented with 10% fetal calf serum and penicillin (100 u/ml), streptomycin (100 mcg/ml), nystatin (12.5 u/ml), L-glutamine (2 mM). Confluent cultures were washed with phosphate-buffered saline (PBS), detached with trypsine (0.25%), centrifuged, and subcultured in 96-well microtiter test plates. Cells were exposed to vehicle or to psychotropic drugs. Cell viability was measured 24 hours later using the alamar blue and neutral red methods. Results were expressed as % of controls (vehicle treated cells). Each sample is the Mean+/−[…] of 4 determinations.

human PBMC = assay: Viability of LPS-exposed human PBMC, alamar blue; assay type: cell-based; details: LPS 2 ug/well, 2.5-30 μM, 48 hours, both subjects
Description: Human PBMC were isolated from whole blood of 2 healthy volunteers (A and B subjects). Cells (2×10^6/ml) were exposed to LPS (2 ug/well) and treated with either the vehicle, or with paroxetine, sertraline, clomipramine and trifluoperazine (2.5-30 μM).

[5] = system: HT29 human colon cancer tumor; assay: HT29 human colon cancer tumor growth in nude mice; assay type: in vivo, mouse; details: 20 mg/kg s.c ×3/week, after 3 courses
Description: The in-vivo anti tumor activity of active antidepressants was assessed in animal model of cancer. Five Nude mice (males, 6 weeks of age) were inoculated with HT29 cells (4,000,000/100 μL) by subcutaneous (s.c.) administration. […] Sertraline therapy was initiated on the 7th day after cell grafting. 3 animals were treated with sertraline (20 mg/kg s.c×3/week) near the cancerous area and 2 animals served as controls.

[6] = chitosan capsules, colon targeting technology; cited from earlier work
[7] = system: mouse splenocytes (basal); assay: Basal mouse splenocyte viability, alamar blue; assay type: cell-based; details: 2.5-10 μM, 48 hr
Description: as §2

[8] = system: splenocytes derived from treated mice; assay: ConA/basal proliferation ratio of splenocytes from mice treated in vivo for 7 days; design: species or system mouse; details: paroxetine 7.5, clomipramine 15 mg/kg x3/week i.p., Con A 5 μM in vitro
Description: Paroxetine or clomipramine were administered at 7.5 and 15 mg/kg x3/week i.p, respectively. Splenocytes were derived from treated animals.
Each group represents the mean of a pool of 5 animals.

[9] = system: TH1 cytokines TNF-α, IL2 and INFγ; assay: TH1 cytokine secretion (TNF-α, IL2, INFγ) from Con-A-induced splenocytes, ELISA; assay type: cell-based, mouse; details: 2.5-10 μM, 48 hours, 1×10^6 cells/well
Description: as §3
Cytokines were determined in the supernatant of the splenocyte specimens using an ELISA kit and protocol (Reagents by Cytolab). […] The pattern observed resembles that of dexamethasone.

INF-γ = INF-γ secretion from Con-A activated mouse splenocytes, ELISA; assay type: cell-based; details: Splenocyte; for inhibition at 10 µM: read-out: maximal inhibition of INF-γ
Description: INF-γ was determined in the supernatant of the splenocyte specimens using ELISA kit and protocol (Manufactured by Cytolab).

CN[C@H]1CC[C@@H](c2ccc(Cl)c(Cl)c2)c2ccccc21 [sertraline]
expression of C-jun (C-jun): stimulation | reduction of Cox-2 expression (Cyclooxygenase-2 (Cox-2)): 24.3% | ConA (mitogen)-induced splenocyte proliferation ([1]; 48 hr): dose-dependent decrease | cell viability compared to dexamethasone ([1]; Con-A 5 μM, drug 2.5-10 μM, 48 hr): decreased cell viability to the same extent as compared to dexamethasone | response of splenocytes from LPS mice treated in vivo with sertraline ([2]; LPS mice + sertraline 5 mg/kg×3/week two weeks): more responsive | response of splenocytes from LPS mice ([2]; LPS-treated mice): in a manner similar to the naive animals | cytotoxicity at 5 µM [3]: 40% | expression of bcl-2 (bcl-2): inhibition | inhibition of cell viability [4]: up to 75% | order of potency, decrease in cell viability (human PBMC): sertraline>paroxetine>trifluoperazine>/=clomipramine | tumor growth vs untreated controls (1 animal) [5]: prevention of tumor growth | tumor growth vs untreated controls (2 other animals) [5]: decrease in tumor growth

O=c1[nH]cc(F)c(=O)[nH]1 [5FU, 5fluoro uracil]
cell viability / responsiveness of HT29 cells ([4]; 24 hours): resistance

COc1cccc2c1C(=O)c1c(O)c3c(c(O)c1C2=O)C[C@@](O)(C(=O)CO)C[C@@H]3O[C@H]1C[C@H](N)[C@H](O)[C@H](C)O1 [doxorubicin]
cell viability / responsiveness of HT29 cells ([4]; 24 hours): only partial responsiveness

OCCN1CCN(CCCN2c3ccccc3Sc3ccc(C(F)(F)F)cc32)CC1 [fluphenazine]
cell viability / responsiveness of HT29 cells ([4]; 24 hours): dose dependent decrease

Nc1ccc(O)c(C(=O)O)c1 [mesalamine]
decrease in systemic exposure [6]: 50%

CN1CCN(CCCN2c3ccccc3Sc3ccc(C(F)(F)F)cc32)CC1 [trifluoperazine]
order of potency, decrease in cell viability (human PBMC): sertraline>paroxetine>trifluoperazine>/=clomipramine

CN(C)CCC=C1c2ccccc2COc2ccccc21 [doxepine]
cytotoxicity at 20 µM ([1]; 48 hours): 38%

CN(C)CCC=C1c2ccccc2CCc2ccccc21 [amitriptyline]
maximal inhibition of cell viability ([1]; 2.5-20 μM, 48 hours): 80.7%

CN(C)CCCN1c2ccccc2CCc2ccc(Cl)cc21 [clomipramine]
ConA (mitogen)-induced splenocyte proliferation ([1]; 48 hr): dose dependent decrease; also recorded: dose-dependent decrease | basal splenocyte proliferation [7]: dose dependent decrease | capacity to respond to Con-A (ratio ConA/basal) vs vehicle treated mice [8]: lower capacity to respond to exogenous stimulus of Con-A | lymphocyte-induced pro-inflammatory cytokine secretion [9]: decrease | inhibition of cell viability [4]: 38% | order of potency, decrease in cell viability (human PBMC): sertraline>paroxetine>trifluoperazine>/=clomipramine

COCCCC/C(=N\OCCN)c1ccc(C(F)(F)F)cc1 [fluvoxamine]
inhibition at 10 µM (INF-γ): 51%

C[C@@H]1C[C@H]2[C@@H]3CCC4=CC(=O)C=C[C@]4(C)[C@@]3(F)[C@@H](O)C[C@]2(C)[C@@]1(O)C(=O)CO [dexamethasone]
inhibition at 2.5 µM (INF-γ; 2.5 μM): 83% | cytotoxicity at 5 µM [3]: 60%

CSc1ccc2c(c1)N(CCC1CCCCN1C)c1ccccc1S2 (stereo not drawn) [thioridazine]
cell viability / responsiveness of HT29 cells ([4]; 24 hours): dose dependent decrease | cytotoxicity at 20 µM ([4]; Homo sapiens, HT-29, 20 μM, 24 hours, read-out: inhibition of cell viability): 85%

OCCN1CCN(CCCN2c3ccccc3Sc3ccc(Cl)cc32)CC1 [perphenazine]
cell viability / responsiveness of HT29 cells ([4]; 24 hours): dose dependent decrease

COc1ccc(C(CN(C)C)C2(O)CCCCC2)cc1 (stereo not drawn) [venlafaxine]
inhibition at 10 µM (INF-γ): 16%

CN(C)CCCC1(c2ccc(F)cc2)OCc2cc(C#N)ccc21 (stereo not drawn) [citalopram]
cytotoxicity at 20 µM ([1]; 48 hours): 49%
